The values below come from patent publication US20210283249A1, “COMBINATION THERAPY FOR CANCER WITH EXON 14 SKIPPING MUTATION(S) OR EXON 14 SKIPPING PHENOTYPE” (Eli Lilly and Company, priority 2016, published 2021).

Test [1] concerns Hs746t-derived xenograft of human gastric carcinoma. In words: Hs746t xenograft model, Example 1 (combination vs monotherapy). In kind it is in vivo, mice. How it is done:
(§1) Hs746t is a gastric cancer cell line known to have MET exon 14 skipping mutation(s) and MET amplification (Asaoka et al., Biochem Biophys Res Commun 394:1042-1046).
(§2) Female athymic nude mice (Envigo) are used for this study. Food and water are available ad libitum. Animals are acclimated for 1 week prior to any experimental manipulation. The study is performed in accordance with AAALAC accredited institutional guidelines.
Merestinib is formulated as a solution in 10% PEG 400/90% (20% Captisol in water). Emibetuzumab is diluted in phosphate buffered saline (PBS). Solutions are freshly prepared every 7 days.
Obtain Hs746t cells from ATCC (American Type Culture Collection) and maintain in RPMI 1640 with 10% fetal bovine serum at 37° C. in 5% CO2. Expand cells in culture, harvest, and wash in Hank's Balanced Salt Solution (HBSS, GIBC®). Implant sub-confluent […] cells into 60 female nu/nu mice at a concentration of 1×10^7 cells in 0.2 ml HBSS subcutaneously into the hind flank of the animal.
Administer merestinib by oral gavage at either 6 mg/kg or 12 mg/kg in a dose volume of 0.2 mL in 10% polyethylene glycol 400/90% of a mixture of 20% Captisol in water, and antibody treatments by intraperitoneal injection (IP) starting on day 12 after tumor cell implantation when average tumor volume of 350 mm^3 and ending on Day 33. Inject animals IP in a dosing volume of 10 mg/kg. After 14 days of dosing (Study Day 27), the animals in the control group are sacrificed because of tumor volumes exceeding >2000 mm^3. After the 28-day dosing period, animals in the single agent arms are sacrificed. […]
In both studies, animals are sacrificed using CO2 and cervical dislocation when tumors grow larger than 2000 mm^3, or at the end of study.
Record tumor growth and body weight changes at least twice a week. Body weight measurement during the course of the study, is a general indicator of tolerability.
(§3) Measure tumor growth with calipers and record body weights twice weekly. Calculate tumor volumes by the formula Volume (mm^3)=L×W^2 (π/6) where L represents the larger diameter and W the smaller diameter. Calculate T/C % using the formula T/C %=100×ΔT/ΔC. Where ΔT=mean tumor volume of the drug-treated group on the final day of the study−mean tumor volume of the drug-treated group on the initial day of the dosing and ΔC=mean tumor volume of the control group on the final day of the study−mean tumor volume of the control group on the initial day of the dosing. Calculate changes in body weight by the formula (Weight on observation day−Weight on day 12)/Weight on Day 12×100. Calculate test for significant differences between treatment groups by RMANOVA using the JMP (v.9.0.3) statistical package (SAS Institute Inc., Cary, N.C., USA).
The p-value from the 2×2 interaction test on day 28 is not significant at p=0.654. All pairwise comparisons between the combination group and each single agent group on day 33 are also statistically significant. […] Full statistical analysis is not feasible as the animals in the vehicle control groups were removed after 14 days of dosing as the animals are sacrificed due to tumor burden.

A further test concerns pMET. In words: pMET in Hs746t cells. In kind it is cell-based, human.
Test [2] relates to Hs746t-derived xenograft of human gastric carcinoma. Put plainly: Hs746t xenograft model, Example 2 (sequential and concurrent administration). In kind it is in vivo, mice. On the procedure: as §2
Merestinib is formulated as a solution in 10% PEG 400/90% (20% Captisol in water). Emibetuzumab and IgG control are diluted in PBS. Solutions are freshly prepared every 7 days.
Obtain, maintain, expand, harvest, and wash Hs746t cell as in Example 1. Implant cells into 36 female nu/nu mice at a concentration of 2×10^6 cells in 0.2 ml HBSS subcutaneously into the hind flank of the animal. […] After the 28-day dosing period, animals in the single agent arms are sacrificed. Tumors in the animals in the combination treatment groups are monitored for continued growth or regrowth of tumors.
In these studies, animals are sacrificed using CO2 and cervical dislocation when tumors grow larger than 2000 mm^3, or at the end of study.
Measure tumor volumes and body weight at least twice weeky. Body weight measurement during the course of the study, is a general indicator of tolerability.
as §3, with “RM ANOVA” for “RMANOVA”
Transform tumor volume to the log scale to equalize variance across time and treatment groups. Analyze the log volume data with a two-way repeated measures analysis of variance by time and treatment using the MIXED procedures in SAS software (Version 9.3). The correlation model for the repeated measures is spatial power. Compare treated groups to the control group at each time point. The MIXED procedure is also used separately for each treatment group to calculate adjusted means and standard errors at each time point. Both analyses account for the autocorrelation within each animal and the loss of data that occurs when animals are removed or lost before the end of the study. The adjusted means and standard errors are plotted for each treatment group versus time. […]

The next test has as its system Hs746t cells. In words: Hs746t cell proliferation. In kind it is cell-based, human.
From the text: as §1

Read-outs that look alike come from different tables or passages of the source. Where only a bound is given, the exact number is not on record here.

As to `Cc1ccc(C(=O)Nc2ccc(Oc3cc4cnn(C)c4cc3-c3cn[nH]c3)c(F)c2)c(=O)n1-c1ccc(F)cc1` [merestinib, N-(3-Fluoro-4-(1-methyl-6-(1H-pyrazol-4-yl)-1H-indazol-5-yloxy)phenyl)-1-(4-fluorophenyl)-6-methyl-2-oxo-1,2-dihydropyridine-3-carboxamide], in test [1] (merestinib 6 mg/kg qd orally), the tumor response course entry was “transient tumor regression followed by re-growth while on treatment”. Moreover, the T/C (commonly the result in the treated group divided by that in the control group, in per cent) in test [1] (merestinib 6 mg/kg qd orally, after 21 day dosing) was found to be 18.3%. Further, in test [1] (merestinib 12 mg/kg cohort, during the 5 weeks post-treatment), the “mice with no tumor regrowth” value is given as 6/7. The tumor regression in test [1] (merestinib 12 mg/kg qd orally, after 21 day dosing) was 91.8%. Moreover, the “effect on pMET” value in the test with pMET (at 65-100 nM) is on record as “totally eliminates”. The “tumor volume on re-growth while on treatment” value in test [2] (merestinib 6 mg/kg qd single agent, by Day 37) was “about 500 mm^3”. Also, the maximal tumor regression in test [2] (merestinib 6 mg/kg qd, Day 27 (7 days of dosing)) amounted to 30.2%. Further, 34 nM corresponded to half-maximal inhibition with Hs746t cells (Homo sapiens) (IC50).

In the case of “emibetuzumab: C8-H241-IgG4 anti-human MET antibody: two light chains of SEQ ID NO: 5 and two heavy chains of SEQ ID NO: 7”, in test [1] (emibetuzumab 10 mg/kg IP qw), the tumor response course result is on record as “tumors are observed to regrow while on treatment”. Moreover, the transient tumor regression in test [1] (emibetuzumab 10 mg/kg IP qw, after 3 doses) stood at 37.7%. The “effect on pMET expression” value in the test with pMET (at 130-650 nM) is listed as “no effect”. Further, the maximum tumor regression in test [2] (emibetuzumab 10 mg/kg qw, Day 27) is 16.0%; in test [2] (emibetuzumab 20 mg/kg qw, Day 37) it was 58.9%. Besides, the IC50 (usually the concentration needed to halve the response being measured) with Hs746t cells was greater than 100 nM.
